Assay results published in patent publication US20170027893A1, “THIOSEMICARBAZONES INHIBITORS OF LYSOPHOSPHATIDIC ACID ACYLTRANSFERASE AND USES THEREOF” (H. LEE CANCER CENTER AND RESEARCH INSTITUTE, INC., priority 2014, published 2017).
Values joined by “and” are separate entries in the source; they are usually repeats but may differ in a detail not shown here. Equal entries are not always repeated. Where two headings read alike, the source gives them in different places.

How the values were obtained:
[1] = test system: MiaPaCa2 human pancreatic cancer cells; assay: inhibition of proliferation, Alamar blue, 72 h; assay type: cell-based
Protocol: The ability of selected compounds from the libraries 6, 15 and 19 to inhibit the growth of MiaPaCa2 human pancreatic cancer cells was investigated. Human pancreatic carcinoma (MiaPaCa2) cells were plated at a low confluency into 96-well tissue culture-treated plates. After allowing cells to attach and grow overnight at 37 degrees in a 5% CO2 incubator, growth medium was replaced with fresh medium (100 μl/well) containing compounds in a range from 0.1-100 μM. All treatments were made from 500× stock solutions in DMSO, and the control wells received an equivalent amount of DMSO in medium. After 72 hours of growth in the presence of the compounds, Alamar blue was added to the wells according to the manufacturer's instructions (Life Technologies, Grand Island, N.Y.) and cells were incubated in its presence for 2-3 hours. Fluorescence readings were performed using a Biotek Synergy II plate reader with […] wavelengths of 530/590 nm. […] Calculated IC50s are representative of at least three independent experiments.

[2] = target: T1, LPAAT-β (Homo sapiens, UniProt O15120); assay: secondary thin layer chromatography (TLC) assay measuring fluorescent PA; assay type: biochemical; design: The assay utilizes full-length, recombinant, baculovirus-produced LPAAT-β; made in house
T1 sequence (O15120 24-278): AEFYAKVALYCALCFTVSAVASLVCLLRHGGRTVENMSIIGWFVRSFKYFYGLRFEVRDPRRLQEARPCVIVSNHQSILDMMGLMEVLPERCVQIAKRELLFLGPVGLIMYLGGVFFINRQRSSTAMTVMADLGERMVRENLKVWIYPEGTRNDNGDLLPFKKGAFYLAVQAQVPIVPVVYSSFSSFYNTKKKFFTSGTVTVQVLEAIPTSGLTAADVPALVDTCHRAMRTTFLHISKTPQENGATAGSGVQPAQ

[3] = target: T1, LPAAT-β; assay: DTNB (Ellman's reagent) 96-well plate screening assay of LPAAT-β enzymatic activity; assay type: biochemical; design: The assay utilizes full-length, recombinant, baculovirus-produced LPAAT-β; made in house
Protocol: Screening with a modified screening assay in 96-well plate format for LPAAT-β enzymatic activity was performed as reported by Aguado and Campbell (Aguado et al., Characterization of a human lysophosphatidic acid acyltransferase that is encoded by a gene located in the class III region of the human major histocompatibility complex. J. Biol. Chem. 1998, 273, 4096-105).
The assay utilizes full-length, recombinant, baculovirus-produced LPAAT-β, which catalyzes the production of dioleoyl-[…] from the enzymatic substrates oleoyl-lysophosphatidic acid (LPA) and oleoyl-coenzyme A (Scheme 2). The ability of the compound to inhibit the LPAAT-β activity was assayed by the colorimetric measurement of the reaction of the free thiol group of the released coenzyme A with Ellman's reagent [5,5′-dithiobis-(2-nitrobenzoic acid) or DTNB] (Riener et al., Quick measurement of protein sulfhydryls with Ellman's reagent and with 4,4′-dithiodipyridine. Anal. Bioanal. Chem. 2002, 373, 266-76). […] A hit identified from the Life Chemicals library 6a (IC50 100 nM) was selected for further investigation.

[4] = Table 4, read-out: IC50 (μm) (DTNB assay) (converted)
[5] = read-out: IC50 (μM) (DTNB assay) (converted)

Structure (SMILES)	IC50 [2]	IC50 ([2]; Table 4)	IC50 [3, 4]	IC50 [3, 5]	also measured
C=CCc1cc(-c2ccc(Cl)cc2)cc(C(C)=NNC(N)=S)c1O [Compound 19p]	2.5 ± 1.4 µM	2.5 ± 1.4 µM	0.32 ± 0.07 µM	0.32 ± 0.07 µM	IC50 [1]: 7.4 ± 2.3 µM
NC(=S)NN=Cc1cccc(-c2ccccc2)c1O [Compound 6m]	> 10 µM	–	–	40 ± 10 µM	–
C=CCc1cccc(C=NN=c2[nH]c(-c3ccccc3)cs2)c1O [Compound 11c]	> 10 µM	–	–	> 100 µM	–
C=CCc1cc(C#N)cc(C(C)=NNC(N)=S)c1O [Compound 19d]	–	> 10 µM	0.46 µM	–	–
NC(=S)NN=Cc1cccc(C2CCCCC2)c1O [Compound 6n]	> 10 µM	–	–	> 100 µM	–
NC(=S)NN=Cc1cccc(F)c1O [Compound 6e]	> 10 µM	–	–	4.3 µM	–
C=CCc1cc(Br)cc(C(C)=NNC(N)=S)c1O [Compound 19c]	–	4.1 µM	0.1 µM	–	–
CC(C)c1cccc(C=NNC(N)=S)c1O [Compound 6l]	30 µM	–	–	13 ± 8.4 µM	–
C=CCc1cc(CCCCC)cc(C(C)=NNC(N)=S)c1O [Compound 19j]	–	3.2 µM	0.19 µM	–	–
NNC(N)=S [Thiosemicarbazide]	–	–	–	–	LPAAT-β inhibitory activity in words (assay not given) [3]: not by itself active
C=CCc1cc(-c2cccc(C#N)c2)cc(C(C)=NNC(N)=S)c1O [Compound 19v]	> 10 µM	> 10 µM	0.28 ± 0.02 µM	0.28 ± 0.02 µM	IC50 ([1]; Homo sapiens, MIA PaCa-2): 7.8 ± 2.7 µM
CCOc1cccc(C=NNC(N)=S)c1O [Compound 6d]	> 10 µM	–	–	> 100 µM	LPAAT-β inhibitory activity in words (assay not given) [3]: inactive
CCCc1cccc(C=NN=c2scc(-c3ccccc3)n2C)c1O [Compound 11b]	> 10 µM	–	–	> 100 µM	LPAAT-β inhibitory activity in words (assay not given) [3]: inactive
NC(=S)N/N=C/c1ccc2ccccc2c1O [Compound 6s]	–	–	–	6.4 ± 4.7 µM	–
NC(=S)NN=Cc1cccc(O)c1O [Compound 6c]	> 10 µM	–	–	> 100 µM	LPAAT-β inhibitory activity in words (assay not given) [3]: inactive
CC(=NNC(N)=S)c1cc(Cl)ccc1O [Compound 15e]	> 10 µM	–	–	2.8 µM	–
C=CCc1cc(C(C)=O)cc(C(C)=NNC(N)=S)c1O [Compound 19l]	> 10 µM	–	–	2.67 ± 0.25 µM	–
C=CCc1cc(-c2ccc(C#N)cc2)cc(C(C)=NNC(N)=S)c1O [Compound 19u]	–	1 ± 0.9 µM	0.4 ± 0.19 µM	0.36 ± 0.1 µM	–
CCCc1cccc(C=NNC(N)=S)c1O [Compound 6k]	19 ± 11 µM	–	–	–	–
C=CCc1cc(CCCCCC)cc(C(C)=NNC(N)=S)c1O [Compound 19k]	3.2 ± 1.6 µM	5.2 µM	0.24 µM	17 ± 7.3 µM	–
NC(=S)NN=Cc1cccc(Br)c1O [Compound 6g]	> 10 µM	–	–	1.5 µM	–
C=CCc1cccc(/C=N/NC(N)=S)c1O [Compound 6a]	33 ± 13 µM	–	–	0.86 ± 0.52 µM	IC50 ([1]; Homo sapiens, MIA PaCa-2): 38 ± 17 µM; IC50 ([3]; hit from the Life Chemicals library, before resynthesis, read-out: IC50 of the hit in the library screen): 0.1 µM
NC(=S)NN=Cc1cccc(C(F)(F)F)c1O [Compound 6i]	> 10 µM	–	–	7 µM	–
C=CCc1cc(CCCC)cc(C(C)=NNC(N)=S)c1O [Compound 19h]	1.4 ± 1.1 µM	1.4 µM	0.16 µM	0.16 ± 0.07 µM	IC50 [1]: 12 ± 3.3 µM
C=CCc1cc(-c2ccccc2)cc(C(C)=NNC(N)=S)c1O [Compound 19n]	5.7 ± 2.5 µM	–	–	1.15 µM and 0.19 µM	–
CC(=NNC(N)=S)c1cc(Cl)cc(Cl)c1O [Compound 15f]	> 10 µM	–	–	0.27 µM	–
CCCCCc1cccc(C=NNC(N)=S)c1O [Compound 6p]	> 10 µM	–	–	> 100 µM	–
CCc1cccc(C=NNC(N)=S)c1O [Compound 6j]	48 ± 15 µM	–	–	0.85 ± 0.56 µM	IC50 ([1]; Homo sapiens, MIA PaCa-2): 36 ± 20 µM
C=CCc1cc(Cl)cc(C(C)=NNC(N)=S)c1O [Compound 19a]	3.3 ± 1.2 µM	3.3 ± 1.2 µM	0.17 ± 0.09 µM	0.17 ± 0.09 µM	IC50 [1]: 14 ± 5.5 µM
